Measured values reported in ChEMBL document CHEMBL4184115, “In vitro and in silico evaluations of diarylpentanoid series as α-glucosidase inhibitor” (Bioorg Med Chem Lett, 2018).

Experiments:
[1] = molecular target: T1, Alpha glucosidase (Homo sapiens, UniProt O43451+P10253+P14410+Q2M2H8); test: Inhibition of alpha-glucosidase (unknown origin) at 50 uM using 4-Nitrophenyl-alpha-D-glucopyranoside as substrate incubated foe 5 mins followed by substrate addition measured after 15 mins relative to control; type: protein assay
[2] = molecular target: T1, Alpha glucosidase; test: Inhibition of alpha-glucosidase (unknown origin) using 4-Nitrophenyl-alpha-D-glucopyranoside as substrate incubated foe 5 mins followed by substrate addition measured after 15 mins; type: protein assay

SMILES	inhibition [1]	IC50 [2]
O=C1/C(=C/c2ccccc2)CCC/C1=C\c1ccccc1Cl	43%	
O=C1/C(=C/c2ccccc2)CCC/C1=C\c1cccc(O)c1	65.1%	28.4 µM
O=C(/C=C(O)/C=C/c1ccc(O)c(O)c1)c1cc(Cl)ccc1O	85.6%	15.1 µM
O=C(/C=C(O)/C=C/c1cc(O)ccc1O)c1ccc(O)cc1O	86.6%	20 µM
O=C1/C(=C/c2ccccc2)CCC/C1=C\c1ccc(O)c(O)c1	90.7%	20.3 µM
COc1cc(/C=C2\CCC/C(=C\c3ccccc3)C2=O)cc(OC)c1OC	16.3%	
O=C1/C(=C/c2ccccc2)CCC/C1=C\c1ccc(Br)cc1	29.1%	
Cc1cccc(/C=C2\CCC/C(=C\c3ccccc3)C2=O)c1	47.9%	
O=C(C1=C(O)/C(=C/c2cccc(O)c2)CCC1)c1ccccc1	43.2%	
COc1ccc(OC)c(/C=C2\CCC/C(=C\c3ccccc3)C2=O)c1	43.8%	
O=C1/C(=C/c2ccccc2)CCC/C1=C\c1cccc(F)c1	39.8%	
O=C1/C(=C/c2ccccc2)CCC/C1=C\c1ccc(Cl)c(Cl)c1	48.4%	
O=C1/C(=C/c2ccccc2)CCC/C1=C\c1cccc(Cl)c1Cl	44%	
O=C(/C=C(O)/C=C/c1cccc(O)c1)c1cc(Cl)ccc1O	62.4%	36.4 µM
COc1ccc(/C=C2\CCC/C(=C\c3ccccc3)C2=O)cc1	31.4%	
O=C(C1=C(O)/C(=C/c2ccc(O)c(O)c2)CCC1)c1ccccc1	55.9%	41 µM
COc1ccc(/C=C2\CCC/C(=C\c3ccccc3)C2=O)c(OC)c1	41%	
O=C(/C=C(O)/C=C/c1cccc(O)c1)c1ccccc1O	40.4%	

SMILES	inhibition [1]	IC50 [2]
COc1cccc(/C=C2\CCC/C(=C\c3ccccc3)C2=O)c1OC	31.8%	
O=C(/C=C(O)/C=C/c1ccc(O)cc1O)c1ccccc1O	61.2%	40.7 µM
O=C1/C(=C/c2ccccc2)CCC/C1=C\c1ccc(F)cc1	34%	
O=c1c(O)c(-c2ccc(O)c(O)c2)oc2cc(O)cc(O)c12 [QUERCETIN]	83.6%	7.8 µM
O=C1/C(=C/c2ccccc2)CCC/C1=C\c1ccccc1Br	46.8%	
O=C1/C(=C/c2ccccc2)CCC/C1=C\c1ccc(Cl)cc1	27.6%	
O=C1/C(=C/c2ccccc2)CCC/C1=C\c1ccc(F)c(F)c1	37.8%	
O=C1/C(=C/c2ccccc2)CCC/C1=C\c1ccccc1F	43%	
O=C(/C=C(O)/C=C/c1ccc(O)cc1)c1cc(Cl)ccc1O	45.3%	
O=C(/C=C(O)/C=C/c1ccc(O)cc1)c1ccccc1O	20.4%	
O=C1/C(=C/c2ccccc2)CCC/C1=C\c1ccc(O)cc1	53%	42.3 µM
O=C(/C=C(O)/C=C/c1cc(O)ccc1O)c1cc(O)ccc1O	96.9%	19.6 µM
O=C(/C=C(O)/C=C/c1ccco1)c1cc(O)ccc1O	98.4%	14.1 µM
O=C(/C=C(O)/C=C/c1ccc(O)c(O)c1)c1ccccc1O	93.6%	14.3 µM
Cc1ccc(/C=C2\CCC/C(=C\c3ccccc3)C2=O)cc1	34.1%	
O=C(C1=C(O)/C(=C/c2ccc(O)cc2)CCC1)c1ccccc1	34.9%	
O=C1/C(=C/c2ccccc2)CCC/C1=C\c1cccc(Br)c1	27.2%	
